Results published in patent US20070128217A1 (priority 2003, published 2007).

Assays:
[1] = tested on: antibodies in sera from SARS patients (sera 1a, 1b, 2, 6, 37, 62, London, SARS-yellow, SARS-green); assay type: binding, human; design: Binding of serum 6 to linear peptides of protein X1 of SARS-CoV Urbani / Binding of serum 37 to linear peptides of protein X1 of SARS-CoV Urbani / Binding of serum 6 to looped/cyclic peptide (PEPSCAN-ELISA) / Binding of serum 37 to looped/cyclic peptide (PEPSCAN-ELISA) / Binding of serum 37 to looped/cyclic peptides of protein X1 of SARS-CoV Urbani / Binding of serum 6 to linear peptides of protein X2 / Binding of serum 37 to linear peptides of protein X2 / Binding of serum 37 to looped/cyclic peptides of protein X2 of SARS-CoV Urbani / Binding of serum 6 to linear peptides of protein M of SARS-CoV Urbani / Binding of serum 37 to linear peptides of protein M of SARS-CoV Urbani / Binding of serum 6 to looped/cyclic peptides of protein M of SARS-CoV Urbani / Binding of serum 37 to looped/cyclic peptides of protein M of SARS-CoV Urbani / Binding of serum 6 to linear peptides of protein X3 of SARS-CoV Urbani / Binding of serum 37 to linear peptides of protein X3 of SARS-CoV Urbani / Binding of serum 37 to looped/cyclic peptides of protein X3 of SARS-CoV Urbani / Binding of serum 6 to linear peptides of protein X4 of SARS-CoV Urbani / Binding of serum 37 to linear peptides of protein X4 of SARS-CoV Urbani / Binding of serum 37 to looped/cyclic peptides of protein X4 of SARS-CoV Urbani / Binding of serum 6 to linear peptides of protein X5 of SARS-CoV Urbani / Binding of serum 37 to linear peptides of protein X5 of SARS-CoV Urbani / Binding of serum 37 to looped/cyclic peptides of protein X5 of SARS-CoV Urbani / Binding of serum 6 to linear peptides of protein N of SARS-CoV Urbani / Binding of serum 37 to linear peptides of protein N of SARS-CoV Urbani / Binding of serum 6 to linear peptide (PEPSCAN-ELISA) / Binding of serum 1a to looped/cyclic peptides of protein N of SARS-CoV Urbani / Binding of serum 1b to looped/cyclic peptides of protein N of SARS-CoV Urbani / Binding of serum 2 to looped/cyclic peptides of protein N of SARS-CoV Urbani / Binding of serum 6 to looped/cyclic peptides of protein N of SARS-CoV Urbani / Binding of serum 37 to looped/cyclic peptides of protein N of SARS-CoV Urbani / Binding of serum 62 to looped/cyclic peptides of protein N of SARS-CoV Urbani / Binding of serum London to looped/cyclic peptides of protein N of SARS-CoV Urbani / Binding of serum SARS-green to looped/cyclic peptides of protein N of SARS-CoV Urbani: unit not given here
[2] = tested on: control sera (pooled serum of ten healthy LUMC hospital workers; commercial negative donor pooled serum from the Dutch bloodbank); assay type: binding, human; design: Binding of Control serum LUMC to linear peptides / Binding of Control serum Blood-bank to linear peptides / Binding of Control serum LUMC to looped peptides / Binding of Control Serum Blood-Bank to Looped peptides / Binding of Control serum LUMC to linear peptides of the protein M of SARS-CoV Urbani / Binding of Control serum Blood-bank to linear peptides of the protein M of SARS-CoV Urbani / Binding of Control serum LUMC to looped peptides of the protein M of SARS-CoV Urbani / Binding of Control Serum Blood-Bank to Looped peptides of the protein M of SARS-CoV Urbani: unit not given here
[3] = tested on: rabbit serum obtained by immunizing a rabbit with the SARS-CoV strain Frankfurt 1; assay type: binding; design: Binding of a rabbit serum to linear peptides / Binding of a rabbit serum to looped peptides / Rabbit serum linear peptides / Rabbit serum looped peptides / Binding of a rabbit serum to linear peptides of protein N of SARS-CoV Urbani (Rabbit serum linear peptides) / Binding of a rabbit serum to looped/cyclic peptides of protein N of SARS-CoV Urbani (Rabbit serum looped peptides): unit not given here

SCELYHYQECVRGTT
Binding of serum 1a to linear peptides of protein X4 of SARS-CoV Urbani [1]: 0.8
Binding of serum 1a to looped/cyclic peptides of protein X4 of SARS-CoV Urbani [1]: 0.5
Binding of serum 1b to linear peptides of protein X4 of SARS-CoV Urbani [1]: 0.6
Binding of serum 1b to looped/cyclic peptides of protein X4 of SARS-CoV Urbani [1]: 0.4
Binding of serum 2 to linear peptides of protein X4 of SARS-CoV Urbani [1]: 0.4
Binding of serum 2 to looped/cyclic peptides of protein X4 of SARS-CoV Urbani [1]: 0.5
Binding of serum 6 to linear peptides of protein X4 of SARS-CoV Urbani [1]: 0.5
Binding of serum 6 to looped/cyclic peptides of protein X4 of SARS-CoV Urbani [1]: 0.5
Binding of serum 37 to linear peptides of protein X4 of SARS-CoV Urbani [1]: 0.7
Binding of serum 37 to looped/cyclic peptides of protein X4 of SARS-CoV Urbani [1]: 0.6
Binding of serum 62 to linear peptides of protein X4 of SARS-CoV Urbani [1]: 0.6
Binding of serum 62 to looped/cyclic peptides of protein X4 of SARS-CoV Urbani [1]: 0.5
Binding of serum London to linear peptides of protein X4 of SARS-CoV Urbani [1]: 0.8
Binding of serum London to looped/cyclic peptides of protein X4 of SARS-CoV Urbani [1]: 0.3
Binding of serum SARS-green to linear peptides of protein X4 of SARS-CoV Urbani [1]: 0.5
Binding of serum SARS-green to looped/cyclic peptides of protein X4 of SARS-CoV Urbani [1]: 0.2
Binding of serum SARS-yellow to linear peptides of protein X4 of SARS-CoV Urbani [1]: 0.2
Binding of serum SARS-yellow to looped/cyclic peptides of protein X4 of SARS-CoV Urbani [1]: 0.2
Binding of Control Serum Blood-Bank to Looped peptides [2]: 0.6
Binding of Control serum Blood-bank to linear peptides [2]: 0.5
Binding of Control serum LUMC to linear peptides [2]: 0.3
Binding of Control serum LUMC to looped peptides [2]: 0.8
Rabbit serum linear peptides [3]: 0.4
Rabbit serum looped peptides [3]: 0.0

SFRLFARTRSMWSFN
Binding of serum 1a to linear peptides of protein M of SARS-CoV Urbani [1]: 0.8
Binding of serum 1a to looped/cyclic peptides of protein M of SARS-CoV Urbani [1]: 0.6
Binding of serum 1b to linear peptides of protein M of SARS-CoV Urbani [1]: 0.7
Binding of serum 1b to looped/cyclic peptides of protein M of SARS-CoV Urbani [1]: 0.5
Binding of serum 2 to linear peptides of protein M of SARS-CoV Urbani [1]: 0.5
Binding of serum 2 to looped/cyclic peptides of protein M of SARS-CoV Urbani [1]: 0.5
Binding of serum 6 to linear peptides of protein M of SARS-CoV Urbani [1]: 0.2
Binding of serum 6 to looped/cyclic peptides of protein M of SARS-CoV Urbani [1]: 0.8
Binding of serum 37 to linear peptides of protein M of SARS-CoV Urbani [1]: 0.8
Binding of serum 37 to looped/cyclic peptides of protein M of SARS-CoV Urbani [1]: 0.6
Binding of serum 62 to linear peptides of protein M of SARS-CoV Urbani [1]: 0.7
Binding of serum 62 to looped/cyclic peptides of protein M of SARS-CoV Urbani [1]: 0.6
Binding of serum London to linear peptides of protein M of SARS-CoV Urbani [1]: 0.3
Binding of serum London to looped/cyclic peptides of protein M of SARS-CoV Urbani [1]: 0.2
Binding of serum SARS-green to linear peptides of protein M of SARS-CoV Urbani [1]: 0.4
Binding of serum SARS-green to looped/cyclic peptides of protein M of SARS-CoV Urbani [1]: 0.3
Binding of serum SARS-yellow to linear peptides of protein M of SARS-CoV Urbani [1]: 0.1
Binding of serum SARS-yellow to looped/cyclic peptides of protein M of SARS-CoV Urbani [1]: 0.5
Binding of Control Serum Blood-Bank to Looped peptides of the protein M of SARS-CoV Urbani [2]: 0.7
Binding of Control serum Blood-bank to linear peptides of the protein M of SARS-CoV Urbani [2]: 0.6
Binding of Control serum LUMC to linear peptides of the protein M of SARS-CoV Urbani [2]: 0.4
Binding of Control serum LUMC to looped peptides of the protein M of SARS-CoV Urbani [2]: 0.6
Rabbit serum linear peptides [3]: 0.8
Rabbit serum looped peptides [3]: 0.2

SGFAAYNRYRIGNYK
Binding of serum 1a to linear peptides of protein M of SARS-CoV Urbani [1]: 0.8
Binding of serum 1a to looped/cyclic peptides of protein M of SARS-CoV Urbani [1]: 0.9
Binding of serum 1b to linear peptides of protein M of SARS-CoV Urbani [1]: 0.4
Binding of serum 1b to looped/cyclic peptides of protein M of SARS-CoV Urbani [1]: 0.6
Binding of serum 2 to linear peptides of protein M of SARS-CoV Urbani [1]: 0.6
Binding of serum 2 to looped/cyclic peptides of protein M of SARS-CoV Urbani [1]: 0.9
Binding of serum 6 to linear peptides of protein M of SARS-CoV Urbani [1]: 0.8
Binding of serum 6 to looped/cyclic peptides of protein M of SARS-CoV Urbani [1]: 1.4
Binding of serum 37 to linear peptides of protein M of SARS-CoV Urbani [1]: 0.7
Binding of serum 37 to looped/cyclic peptides of protein M of SARS-CoV Urbani [1]: 0.7
Binding of serum 62 to linear peptides of protein M of SARS-CoV Urbani [1]: 0.8
Binding of serum 62 to looped/cyclic peptides of protein M of SARS-CoV Urbani [1]: 0.7
Binding of serum London to linear peptides of protein M of SARS-CoV Urbani [1]: 0.4
Binding of serum London to looped/cyclic peptides of protein M of SARS-CoV Urbani [1]: 0.3
Binding of serum SARS-green to linear peptides of protein M of SARS-CoV Urbani [1]: 0.3
Binding of serum SARS-green to looped/cyclic peptides of protein M of SARS-CoV Urbani [1]: 0.2
Binding of serum SARS-yellow to linear peptides of protein M of SARS-CoV Urbani [1]: 0.0
Binding of serum SARS-yellow to looped/cyclic peptides of protein M of SARS-CoV Urbani [1]: 0.7
Binding of Control Serum Blood-Bank to Looped peptides of the protein M of SARS-CoV Urbani [2]: 0.7
Binding of Control serum Blood-bank to linear peptides of the protein M of SARS-CoV Urbani [2]: 0.6
Binding of Control serum LUMC to linear peptides of the protein M of SARS-CoV Urbani [2]: 0.4
Binding of Control serum LUMC to looped peptides of the protein M of SARS-CoV Urbani [2]: 0.8
Rabbit serum linear peptides [3]: 1.2
Rabbit serum looped peptides [3]: 1.6

SHLLLVAAGMEAQFL
Binding of serum 1a to linear peptides of protein X1 of SARS-CoV Urbani [1]: 0.8
Binding of serum 1a to looped/cyclic peptide (PEPSCAN-ELISA) [1]: 0.2
Binding of serum 1b to linear peptides of protein X1 of SARS-CoV Urbani [1]: 0.7
Binding of serum 1b to looped/cyclic peptide (PEPSCAN-ELISA) [1]: 0.5
Binding of serum 2 to linear peptides of protein X1 of SARS-CoV Urbani [1]: 0.7
Binding of serum 2 to looped/cyclic peptide (PEPSCAN-ELISA) [1]: 0.1
Binding of serum 6 to linear peptides of protein X1 of SARS-CoV Urbani [1]: 0.6
Binding of serum 6 to looped/cyclic peptide (PEPSCAN-ELISA) [1]: 0.1
Binding of serum 37 to linear peptides of protein X1 of SARS-CoV Urbani [1]: 0.8
Binding of serum 37 to looped/cyclic peptide (PEPSCAN-ELISA) [1]: 0.1
Binding of serum 62 to linear peptides of protein X1 of SARS-CoV Urbani [1]: 0.8
Binding of serum 62 to looped/cyclic peptide (PEPSCAN-ELISA) [1]: 0.2
Binding of serum London to linear peptides of protein X1 of SARS-CoV Urbani [1]: 0.3
Binding of serum London to looped/cyclic peptide (PEPSCAN-ELISA) [1]: 0.1
Binding of serum SARS-green to linear peptides of protein X1 of SARS-CoV Urbani [1]: 0.3
Binding of serum SARS-green to looped/cyclic peptide (PEPSCAN-ELISA) [1]: 0.5
Binding of serum SARS-yellow to linear peptides of protein X1 of SARS-CoV Urbani [1]: 0.7
Binding of serum SARS-yellow to looped/cyclic peptide (PEPSCAN-ELISA) [1]: 0.0
Binding of Control Serum Blood-Bank to Looped peptides [2]: 0.4
Binding of Control serum Blood-bank to linear peptides [2]: 0.7
Binding of Control serum LUMC to linear peptides [2]: 0.7
Binding of Control serum LUMC to looped peptides [2]: 0.2
Binding of a rabbit serum to linear peptides [3]: 0.5
Binding of a rabbit serum to looped peptides [3]: 0.0

SKNPLLYDANYFVCW
Binding of serum 1a to linear peptides of protein X1 of SARS-CoV Urbani [1]: 0.7
Binding of serum 1a to looped/cyclic peptide (PEPSCAN-ELISA) [1]: 0.6
Binding of serum 1b to linear peptides of protein X1 of SARS-CoV Urbani [1]: 0.5
Binding of serum 1b to looped/cyclic peptide (PEPSCAN-ELISA) [1]: 0.5
Binding of serum 2 to linear peptides of protein X1 of SARS-CoV Urbani [1]: 0.4
Binding of serum 2 to looped/cyclic peptide (PEPSCAN-ELISA) [1]: 0.5
Binding of serum 6 to linear peptides of protein X1 of SARS-CoV Urbani [1]: 0.5
Binding of serum 6 to looped/cyclic peptide (PEPSCAN-ELISA) [1]: 0.4
Binding of serum 37 to linear peptides of protein X1 of SARS-CoV Urbani [1]: 0.5
Binding of serum 37 to looped/cyclic peptide (PEPSCAN-ELISA) [1]: 0.6
Binding of serum 62 to linear peptides of protein X1 of SARS-CoV Urbani [1]: 0.4
Binding of serum 62 to looped/cyclic peptide (PEPSCAN-ELISA) [1]: 0.6
Binding of serum London to linear peptides of protein X1 of SARS-CoV Urbani [1]: 0.2
Binding of serum London to looped/cyclic peptide (PEPSCAN-ELISA) [1]: 0.2
Binding of serum SARS-green to linear peptides of protein X1 of SARS-CoV Urbani [1]: 0.2
Binding of serum SARS-green to looped/cyclic peptide (PEPSCAN-ELISA) [1]: 0.4
Binding of serum SARS-yellow to linear peptides of protein X1 of SARS-CoV Urbani [1]: 0.4
Binding of serum SARS-yellow to looped/cyclic peptide (PEPSCAN-ELISA) [1]: 0.5
Binding of Control Serum Blood-Bank to Looped peptides [2]: 0.6
Binding of Control serum Blood-bank to linear peptides [2]: 0.4
Binding of Control serum LUMC to linear peptides [2]: 0.5
Binding of Control serum LUMC to looped peptides [2]: 0.6
Binding of a rabbit serum to linear peptides [3]: 0.1
Binding of a rabbit serum to looped peptides [3]: 0.6
